System: Escherichia coli (β)
Assay: Screening of secretion efficiency, TorA expressing strain
Format: cell-based
Details: surfactant 1 wt %; 37° C., 1 hour; ELISA, anti-His-tag antibody
From the text: A torA gene of an Escherichia coli strain W3110 was amplified by the PCR method using primers 3 and 4 (Table 4). After being treated with restriction enzymes NdeI and BamHI, a PCR fragment was bound to an NdeI restriction enzyme site and a BamHI restriction enzyme site of a pET-22b plasmid (product of Novagen). Then, the plasmid was transformed into an AG1 (DE3) Escherichia coli strain to form a TorA expressing strain (β). Localization of the expressed TorA in a periplasmic fraction was confirmed by conducting an analysis based on the method disclosed in page 121 of Vol. 353 of METHODS IN ENZYMOLOGY (2002).
A pdxA gene of an Escherichia coli strain W3110 was amplified by the PCR method using primers 5 and 6 (Table 4). After being treated with restriction enzymes NdeI and BamHI, a PCR fragment was bound to an NdeI restriction enzyme site and a BamHI restriction enzyme site of a pET-22b plasmid (product of Novagen). Then, the plasmid was transformed into an AG1 (DE3) Escherichia coli strain to form a PdxA expressing strain (γ). Localization of the expressed PdxA in a cytoplasmic compartment was confirmed by conducting an analysis based on the method disclosed in page 121 of Vol. 353 of METHODS IN ENZYMOLOGY (2002). […]
(4) Then, the solution was allowed to stand at 37° C. for 1 hour. […] Here, the quantification of the recombinant protein in the resulting solution was carried out by ELISA assay with use of an anti-His-tag antibody. The sample prior to the centrifugation in the process (3) was treated with ultrasonic waves (200 W, 10 minutes) and the quantification of the recombinant protein therein was similarly carried out by ELISA assay with use of an anti-His-tag antibody. The ratio of lysed bacteria was obtained with use of Escherichia coli (γ), and the secretion efficiencies of the recombinant proteins of Escherichia coli (α) and (β) were calculated by using the following formula. […]
“Z” represents the ratio of lysed bacteria obtained with use of Escherichia coli (γ), which is determined by the following formula: Z=Z1/Z2. […]

Substance | Secretion efficiency (%) Escherichia coli (β) [%]
Cured palm oil fatty acid amidopropyl dimethyl aminoacetate betaine [A-6] | 85.4
Polyoxyethylene(3 mol)tridecyl ether sodium acetate [A-1] | 98.2

Source: patent publication US9328369B2, “Process for production of useful substance, and surfactant for use in the process” (priority 2009, dated 2016)
